# In patent publication US8952024B2, “Herbicidal pyrimidone derivatives” (E I du Pont de Nemours and Company, priority 2009, dated 2015):
# Key:
# Assay in all cases: Test B pre-/postemergence plant response
# Type in all cases: in vivo
# [1] = tested on: morningglory (Ipomoea coccinea)
# Source text: (§1) Seeds of plant species selected from blackgrass (Alopecurus myosuroides), downy bromegrass (Bromus tectorum), green foxtail (Setaria viridis), Italian ryegrass (Lolium multiflorum), wheat (Triticum aestivum), wild oat (Avena fatua), deadnettle (henbit deadnettle, Lamium amplexicaule), galium (catchweed bedstraw, Galium aparine), bermudagrass (Cynodon dactylon), Surinam grass (Brachiaria decumbens), cocklebur (Xanthium strumarium), corn (Zea mays), large crabgrass (Digitaria sanguinalis), woolly cupgrass (Eriochloa villosa), giant foxtail (Setaria faberii), goosegrass (Eleusine indica), johnsongrass (Sorghum halepense), kochia (Kochia scoparia), lambsquarters (Chenopodium album), morningglory (Ipomoea coccinea), nightshade (eastern black nightshade, Solanum ptycanthum), yellow nutsedge (Cyperus esculentus), pigweed (Amaranthus retroflexus), ragweed (common ragweed, Ambrosia elatior), Russian thistle (Salsola kali), soybean (Glycine max), sunflower (common oilseed sunflower, Helianthus annuus) and velvetleaf (Abutilon theophrasti) were planted into a blend of loam soil and sand and treated preemergence with test compounds formulated in a non-phytotoxic solvent mixture which included a surfactant.
# (§2) At the same time, plants selected from these crop and weed species and also winter barley (Hordeum vulgare), canarygrass (Phalaris minor), chickweed (Stellaria media) and windgrass (Apera spica-venti) were planted in pots containing Redi-Earth® planting medium (Scotts Company, 14111 Scottslawn Road, Marysville, Ohio 43041) comprising spaghnum peat moss, vermiculite, wetting agent and starter nutrients and treated with postemergence applications of some of the test chemicals formulated in the same manner. Plants ranged in height from 2 to 18 cm (1- to 4-leaf stage) for postemergence treatments.
# (§3) Treated plants and controls were maintained in a greenhouse for 13 to 15 days, after which time all treated plants were visually evaluated and compared to controls. Plant response ratings, summarized in Table B, are based on a scale of 0 to 100 where 0 is no effect and 100 is complete control. A dash (-) response means no test result.
# [2] = tested on: blackgrass (Alopecurus myosuroides)
# Source text: as §1, §2, §3
# [3] = tested on: woolly cupgrass (Eriochloa villosa)
# Source text: as §1, §2, §3
# [4] = tested on: velvetleaf (Abutilon theophrasti)
# Source text: as §1, §2, §3
# wild oat (Avena fatua) = tested on: wild oat (Avena fatua)
# Source text: as §1, §2, §3
# [5] = tested on: cocklebur (Xanthium strumarium)
# Source text: as §1, §2, §3
# [6] = tested on: downy bromegrass (Bromus tectorum)
# Source text: as §1, §2, §3
# [7] = tested on: large crabgrass (Digitaria sanguinalis)
# Source text: as §1, §2, §3
# corn (Zea mays) = tested on: corn (Zea mays)
# Source text: as §1, §2, §3
# [8] = tested on: johnsongrass (Sorghum halepense)
# Source text: as §1, §2, §3
# [9] = tested on: goosegrass (Eleusine indica)
# Source text: as §1, §2, §3
# [10] = tested on: Surinam grass (Brachiaria decumbens)
# Source text: as §1, §2, §3
# soybean (Glycine max) = tested on: soybean (Glycine max)
# Source text: as §1, §2, §3
# [11] = tested on: green foxtail (Setaria viridis)
# Source text: as §1, §2, §3
# kochia (Kochia scoparia) = tested on: kochia (Kochia scoparia)
# Source text: as §1, §2, §3
# [12] = tested on: giant foxtail (Setaria faberii)
# Source text: as §1, §2, §3
# [13] = tested on: yellow nutsedge (Cyperus esculentus)
# Source text: as §1, §2, §3
# [14] = 250 g ai/ha, Preemergence, 0 to 100 scale
# [15] = Postemergence, 31 g ai/ha, scale 0 to 100 (0 no effect, 100 complete control)
# [16] = Postemergence, 62 g ai/ha, scale 0 (no effect) to 100 (complete control), 13 to 15 days
# [17] = Postemergence, 125 g ai/ha, visual rating after 13 to 15 days, scale 0 (no effect) to 100 (complete control)
# [18] = Postemergence, 250 g ai/ha, scale 0 to 100
# [19] = Preemergence, 31 g ai/ha, scale 0 to 100 (0 no effect, 100 complete control)
# [20] = Preemergence, 62 g ai/ha, scale 0 to 100, 0 no effect, 100 complete control
# [21] = Preemergence, 125 g ai/ha, 0 to 100 scale
substance,measurement,setting,value
"2-(3,5-difluorophenyl)-5-[(2-hydroxy-4-oxobicyclo[3.2.1]oct-2-en-3-yl)carbonyl]-3-(2-methoxyethyl)-4(3H)-pyrimidinone [Compound 243]","Plant response rating, Morningglory",[1]; [14],98
same,"Plant response rating, Morningglory",[1]; [15],45
same,"Plant response rating, Morningglory",[1]; [16],45
same,"Plant response rating, Morningglory",[1]; [17],70
same,Morningglory plant response rating,[1]; [18],75
same,"Plant response rating, Morningglory",[1]; [19],0
same,"Plant response rating, Morningglory",[1]; [20],40
same,Morningglory plant response rating,[1]; [21],70
same,"Plant response rating, Blackgrass",[2]; [14],40
same,"Plant response rating, Blackgrass",[2]; [15],0
same,"Plant response rating, Blackgrass",[2]; [16],0
same,"Plant response rating, Blackgrass",[2]; [17],40
same,Blackgrass plant response rating,[2]; [18],70
same,"Plant response rating, Blackgrass",[2]; [19],0
same,"Plant response rating, Blackgrass",[2]; [20],0
same,Blackgrass plant response rating,[2]; [21],20
same,"Plant response rating, Cupgrass, Woolly",[3]; [14],60
same,"Plant response rating, Cupgrass, Woolly",[3]; [15],70
same,"Plant response rating, Cupgrass, Woolly",[3]; [16],75
same,"Plant response rating, Cupgrass, Woolly",[3]; [17],80
same,"Cupgrass, Woolly plant response rating",[3]; [18],85
same,"Plant response rating, Cupgrass, Woolly",[3]; [19],0
same,"Plant response rating, Cupgrass, Woolly",[3]; [20],15
same,"Cupgrass, Woolly plant response rating",[3]; [21],45
same,"Plant response rating, Velvetleaf",[4]; [14],100
same,"Plant response rating, Velvetleaf",[4]; [15],85
same,"Plant response rating, Velvetleaf",[4]; [16],85
same,"Plant response rating, Velvetleaf",[4]; [17],90
same,Velvetleaf plant response rating,[4]; [18],98
same,"Plant response rating, Velvetleaf",[4]; [19],98
same,"Plant response rating, Velvetleaf",[4]; [20],100
same,Velvetleaf plant response rating,[4]; [21],100
same,"Plant response rating, Oat, Wild",wild oat (Avena fatua); [14],60
same,"Plant response rating, Oat, Wild",wild oat (Avena fatua); [15],0
same,"Plant response rating, Oat, Wild",wild oat (Avena fatua); [16],5
same,"Plant response rating, Oat, Wild",wild oat (Avena fatua); [17],40
same,"Oat, Wild plant response rating",wild oat (Avena fatua); [18],55
same,"Plant response rating, Oat, Wild",wild oat (Avena fatua); [19],0
same,"Plant response rating, Oat, Wild",wild oat (Avena fatua); [20],0
same,"Oat, Wild plant response rating",wild oat (Avena fatua); [21],0
same,"Plant response rating, Cocklebur",[5]; [14],100
same,"Plant response rating, Cocklebur",[5]; [15],0
same,"Plant response rating, Cocklebur",[5]; [16],0
same,"Plant response rating, Cocklebur",[5]; [17],35
same,Cocklebur plant response rating,[5]; [18],45
same,"Plant response rating, Cocklebur",[5]; [19],0
same,"Plant response rating, Cocklebur",[5]; [20],25
same,Cocklebur plant response rating,[5]; [21],65
same,"Plant response rating, Bromegrass, Downy",[6]; [14],10
same,"Plant response rating, Bromegrass, Downy",[6]; [15],5
same,"Plant response rating, Bromegrass, Downy",[6]; [16],30
same,"Plant response rating, Bromegrass, Downy",[6]; [17],40
same,"Bromegrass, Downy plant response rating",[6]; [18],50
same,"Plant response rating, Bromegrass, Downy",[6]; [19],0
same,"Plant response rating, Bromegrass, Downy",[6]; [20],0
same,"Bromegrass, Downy plant response rating",[6]; [21],5
same,"Plant response rating, Crabgrass, Large",[7]; [14],100
same,"Plant response rating, Crabgrass, Large",[7]; [15],70
same,"Plant response rating, Crabgrass, Large",[7]; [16],80
same,"Plant response rating, Crabgrass, Large",[7]; [17],85
same,"Crabgrass, Large plant response rating",[7]; [18],95
same,"Plant response rating, Crabgrass, Large",[7]; [19],0
same,"Plant response rating, Crabgrass, Large",[7]; [20],90
same,"Crabgrass, Large plant response rating",[7]; [21],100
same,"Plant response rating, Corn",corn (Zea mays); [14],10
same,"Plant response rating, Corn",corn (Zea mays); [15],15
same,"Plant response rating, Corn",corn (Zea mays); [16],45
same,"Plant response rating, Corn",corn (Zea mays); [17],75
same,Corn plant response rating,corn (Zea mays); [18],80
same,"Plant response rating, Corn",corn (Zea mays); [19],0
same,"Plant response rating, Corn",corn (Zea mays); [20],0
same,Corn plant response rating,corn (Zea mays); [21],0
same,"Plant response rating, Johnsongrass",[8]; [14],98
same,"Plant response rating, Johnsongrass",[8]; [15],60
same,"Plant response rating, Johnsongrass",[8]; [16],70
same,"Plant response rating, Johnsongrass",[8]; [17],85
same,Johnsongrass plant response rating,[8]; [18],95
same,"Plant response rating, Johnsongrass",[8]; [19],0
same,"Plant response rating, Johnsongrass",[8]; [20],85
same,Johnsongrass plant response rating,[8]; [21],90
same,"Plant response rating, Goosegrass",[9]; [14],100
same,"Plant response rating, Goosegrass",[9]; [15],60
same,"Plant response rating, Goosegrass",[9]; [16],85
same,"Plant response rating, Goosegrass",[9]; [17],90
same,Goosegrass plant response rating,[9]; [18],100
same,"Plant response rating, Goosegrass",[9]; [19],75
same,Goosegrass plant response rating,[9]; [21],100
same,"Plant response rating, Surinam Grass",[10]; [14],95
same,"Plant response rating, Surinam Grass",[10]; [15],55
same,"Plant response rating, Surinam Grass",[10]; [16],65
same,"Plant response rating, Surinam Grass",[10]; [17],75
same,Surinam Grass plant response rating,[10]; [18],85
same,"Plant response rating, Surinam Grass",[10]; [19],0
same,"Plant response rating, Surinam Grass",[10]; [20],45
same,Surinam Grass plant response rating,[10]; [21],95
same,"Plant response rating, Soybean",soybean (Glycine max); [14],80
same,"Plant response rating, Soybean",soybean (Glycine max); [15],70
same,"Plant response rating, Soybean",soybean (Glycine max); [16],75
same,"Plant response rating, Soybean",soybean (Glycine max); [17],85
same,Soybean plant response rating,soybean (Glycine max); [18],98
same,"Plant response rating, Soybean",soybean (Glycine max); [19],0
same,"Plant response rating, Soybean",soybean (Glycine max); [20],10
same,"Plant response rating, Foxtail, Green",[11]; [15],35
same,"Plant response rating, Foxtail, Green",[11]; [16],40
same,"Plant response rating, Foxtail, Green",[11]; [17],80
same,"Foxtail, Green plant response rating",[11]; [18],95
same,"Plant response rating, Foxtail, Green",[11]; [19],0
same,"Plant response rating, Foxtail, Green",[11]; [20],0
same,"Foxtail, Green plant response rating",[11]; [21],5
same,"Plant response rating, Kochia",kochia (Kochia scoparia); [14],100
same,"Plant response rating, Kochia",kochia (Kochia scoparia); [15],10
same,"Plant response rating, Kochia",kochia (Kochia scoparia); [16],15
same,"Plant response rating, Kochia",kochia (Kochia scoparia); [17],25
same,Kochia plant response rating,kochia (Kochia scoparia); [18],85
same,"Plant response rating, Kochia",kochia (Kochia scoparia); [19],15
same,"Plant response rating, Kochia",kochia (Kochia scoparia); [20],100
same,Kochia plant response rating,kochia (Kochia scoparia); [21],100
same,"Plant response rating, Foxtail, Giant",[12]; [14],98
same,"Plant response rating, Foxtail, Giant",[12]; [15],75
same,"Plant response rating, Foxtail, Giant",[12]; [16],85
same,"Plant response rating, Foxtail, Giant",[12]; [17],95
same,"Foxtail, Giant plant response rating",[12]; [18],100
same,"Plant response rating, Foxtail, Giant",[12]; [19],0
same,"Plant response rating, Foxtail, Giant",[12]; [20],15
same,"Foxtail, Giant plant response rating",[12]; [21],60
same,"Plant response rating, Nutsedge, Yellow",[13]; [14],95
same,"Plant response rating, Nutsedge, Yellow",[13]; [15],20
same,"Plant response rating, Nutsedge, Yellow",[13]; [16],25
same,"Plant response rating, Nutsedge, Yellow",[13]; [17],60
same,"Nutsedge, Yellow plant response rating",[13]; [18],70
same,"Plant response rating, Nutsedge, Yellow",[13]; [19],0
same,"Plant response rating, Nutsedge, Yellow",[13]; [20],45
same,"Nutsedge, Yellow plant response rating",[13]; [21],80
